Results taken from US11690833B2, “Personal care compositions” (priority 2017, dated 2023).
Like-named read-outs stand apart in the source and are kept apart here.

Experiments:
oral bacteria = experiment: Alamar Blue evaluation of antibacterial efficacy in the presence of the anionic surfactant SLS; format: cell-based, human saliva; conditions: 10 mg active + 20 mg of 30 weight % SLS solution + 5 ml oral bacteria solution, 37° C., 1 hour after addition of Alamar Blue dye, color change from blue to red indicates live bacteria
Description: In particular, the antibacterial efficacy of a CPC—ZnCl2 complex was compared to ZnCl2 and CPC individually, in the presence of SLS, as follows: human saliva was collected and diluted three times with deionized water, centrifuged, and decanted to yield a translucent solution of oral bacteria. […] A negative control was also prepared adding 20 mg (+/−0.9 mg) of the 30 weight % SLS aqueous solution and 5 ml of the prepared oral bacteria solution to deionized water instead of the antibacterial ingredient. The samples were then placed in a 37° C. oven and shaken at 100 RPM for 30 minutes. 200 μL of Alamar Blue dye was then added to each sample and placed back in the 37° C. oven and shaken at 100 RPM. The samples were then monitored every 30 minutes, with the results 1 hour after addition of the dye recorded in Table 1. Under an Alamar Blue assay, a color change from blue to red indicates the presence of live bacteria.

Compound | Color of Solution (oral bacteria) | Color of Solution (oral bacteria; listed as CPC—ZnCl2 complex) | solubility in water (0.1 weight % solution, room temperature (23-24° C.)) | solubility in water (0.5 weight % solution, room temperature (23-24° C.)) | solubility in water (1.0 weight % solution, physiological temperature (36-37° C.)) | solubility in water (1.0 weight % solution, room temperature (23-24° C.), after 24 hours of aging) | solubility in water (10 weight % solution, physiological temperature (36-37° C.)) | solubility in water (10.0 weight % solution, room temperature (23-24° C.), after 24 hours of aging) | reduction in solubility compared to the CPC and ZnCl2 reactants separately (water) [fold]
CCCCCCCCCCCCCCCC[n+]1ccccc1.CCCCCCCCCCCCCCCC[n+]1ccccc1.[Cl][Zn-2]([Cl])([Cl])[Cl] [CPC-ZnCl2 complex] | Blue | blue | soluble | soluble | soluble | undissolved | not fully soluble | undissolved | ≥ 25
CCCCCCCCCCCCCCCC[n+]1ccccc1 [CPC, cetylpyridinium chloride] | pink and Pink | – | – | – | – | – | – | – | –
[Cl-].[Cl-].[Zn+2] [ZnCl2, zinc chloride] | Purple | – | – | – | – | – | – | – | –
